Data from PubChem BioAssay (NCI).
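Step 1: Grow cells in 96-well plates. Step 2: Expose to compound for 48 hours at 5 concentrations. Step 3: Interpolate endpoints linearly; if unreached, use highest concentration. GI50 = concentration required for 50% inhibition of growth. At the TGI there is no net growth.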

What was measured:
Assay in all cases: growth of human tumour cells (NCI), 48 h
MDA-MB-468 breast = tested on: MDA-MB-468 breast
SK-OV-3 ovarian = tested on: SK-OV-3 ovarian
SNB-75 CNS = tested on: SNB-75 CNS
SR leukemia = tested on: SR leukemia
SNB-19 CNS = tested on: SNB-19 CNS
HOP-62 NSCLC = tested on: HOP-62 NSCLC
DU-145 prostate = tested on: DU-145 prostate
IGROV1 ovarian = tested on: IGROV1 ovarian
MOLT-4 leukemia = tested on: MOLT-4 leukemia
SK-MEL-28 melanoma = tested on: SK-MEL-28 melanoma
MALME-3M melanoma = tested on: MALME-3M melanoma
RPMI-8226 leukemia = tested on: RPMI-8226 leukemia
786-0 renal = tested on: 786-0 renal
ACHN renal = tested on: ACHN renal
K-562 leukemia = tested on: K-562 leukemia
HS 578T breast = tested on: HS 578T breast
HT29 colon = tested on: HT29 colon
MDA-MB-231 breast = tested on: MDA-MB-231 breast
T-47D breast = tested on: T-47D breast
TK-10 renal = tested on: TK-10 renal
UACC-62 melanoma = tested on: UACC-62 melanoma
A549 NSCLC = tested on: A549 NSCLC
SN12C renal = tested on: SN12C renal
BT-549 breast = tested on: BT-549 breast
SF-268 CNS = tested on: SF-268 CNS
NCI-H23 lung = tested on: NCI-H23 lung
EKVX NSCLC = tested on: EKVX NSCLC
CCRF-CEM leukemia = tested on: CCRF-CEM leukemia
SF-295 CNS = tested on: SF-295 CNS
HOP-92 NSCLC = tested on: HOP-92 NSCLC
HCC-2998 colon = tested on: HCC-2998 colon
PC-3 prostate = tested on: PC-3 prostate
OVCAR-4 ovarian = tested on: OVCAR-4 ovarian
RXF 393 renal = tested on: RXF 393 renal
HCT-116 colon = tested on: HCT-116 colon
SK-MEL-5 melanoma = tested on: SK-MEL-5 melanoma
UACC-257 melanoma = tested on: UACC-257 melanoma
SF-539 CNS = tested on: SF-539 CNS
LOX IMVI melanoma = tested on: LOX IMVI melanoma
A498 renal = tested on: A498 renal
OVCAR-8 ovarian = tested on: OVCAR-8 ovarian
NCI-H460 lung = tested on: NCI-H460 lung
COLO 205 colon = tested on: COLO 205 colon
UO-31 renal = tested on: UO-31 renal
M14 melanoma = tested on: M14 melanoma
HCT-15 colon = tested on: HCT-15 colon
U251 CNS = tested on: U251 CNS
CAKI-1 renal = tested on: CAKI-1 renal
HL-60(TB) leukemia = tested on: HL-60(TB) leukemia
MDA-MB-435 = tested on: MDA-MB-435
SW-620 colon = tested on: SW-620 colon
NCI-H226 lung = tested on: NCI-H226 lung
KM12 colon = tested on: KM12 colon
MCF7 breast = tested on: MCF7 breast
OVCAR-3 ovarian = tested on: OVCAR-3 ovarian
NCI-H522 lung = tested on: NCI-H522 lung
OVCAR-5 ovarian = tested on: OVCAR-5 ovarian

Structure (SMILES): COc1cc(Cl)cc(-c2nn(C(=O)NCCN3CCN(C)CC3)cc2-c2ccncc2)c1
- GI50 (MDA-MB-468 breast): 10.5 µM
- TGI (MDA-MB-468 breast): 49.9 µM

Structure (SMILES): CCN1C(=O)N(CC)C2C1NN=c1s/c(=C3\C(=O)N(CC(C)C)c4ccccc43)c(=O)n12 (stereo not drawn)
- GI50 (MDA-MB-468 breast): 0.351 µM
- TGI (MDA-MB-468 breast): 15.9 µM

Structure (SMILES): CCC(C)(C)c1ccc(OCCCCN2CCN(c3ccncc3)CC2)cc1
- GI50 (SK-OV-3 ovarian): 14.7 µM
- TGI (SK-OV-3 ovarian): 29 µM
- GI50 (SNB-75 CNS): 13.4 µM
- TGI (SNB-75 CNS): 26.6 µM
- GI50 (SR leukemia): 3.06 µM
- TGI (SR leukemia): 10.1 µM
- GI50 (SNB-19 CNS): 11.3 µM
- TGI (SNB-19 CNS): 23.6 µM
- GI50 (HOP-62 NSCLC): 12.4 µM
- TGI (HOP-62 NSCLC): 27 µM
- GI50 (DU-145 prostate): 13.4 µM
- TGI (DU-145 prostate): 26.7 µM
- GI50 (IGROV1 ovarian): 13.7 µM
- TGI (IGROV1 ovarian): 27.3 µM
- GI50 (MOLT-4 leukemia): 4.63 µM
- TGI (MOLT-4 leukemia): 24.4 µM
- GI50 (SK-MEL-28 melanoma): 7.48 µM
- TGI (SK-MEL-28 melanoma): 20.3 µM
- GI50 (MALME-3M melanoma): 7.82 µM
- TGI (MALME-3M melanoma): 20.5 µM
- GI50 (RPMI-8226 leukemia): 4.59 µM
- TGI (RPMI-8226 leukemia): 24.2 µM
- GI50 (786-0 renal): 7.54 µM
- TGI (786-0 renal): 20.1 µM
- GI50 (ACHN renal): 15 µM
- TGI (ACHN renal): 28.3 µM
- GI50 (K-562 leukemia): 1.98 µM
- TGI (K-562 leukemia): 11.2 µM
- GI50 (HS 578T breast): 13.8 µM
- TGI (HS 578T breast): 38.8 µM
- GI50 (HT29 colon): 3.45 µM
- TGI (HT29 colon): 14 µM
- GI50 (MDA-MB-231 breast): 11 µM
- TGI (MDA-MB-231 breast): 23.4 µM
- GI50 (T-47D breast): 5.27 µM
- TGI (T-47D breast): 22.8 µM
- GI50 (TK-10 renal): 15.9 µM
- TGI (TK-10 renal): 29.8 µM
- GI50 (MDA-MB-468 breast): 2.27 µM
- TGI (MDA-MB-468 breast): 5.8 µM
- GI50 (UACC-62 melanoma): 13.5 µM
- TGI (UACC-62 melanoma): 26.4 µM
- GI50 (A549 NSCLC): 12.5 µM
- TGI (A549 NSCLC): 27.3 µM
- GI50 (SN12C renal): 13 µM
- TGI (SN12C renal): 26 µM
- GI50 (BT-549 breast): 5.79 µM
- TGI (BT-549 breast): 19.2 µM
- GI50 (SF-268 CNS): 15.3 µM
- TGI (SF-268 CNS): 31 µM
- GI50 (NCI-H23 lung): 5.46 µM
- TGI (NCI-H23 lung): 18.4 µM
- GI50 (EKVX NSCLC): 7.78 µM
- TGI (EKVX NSCLC): 21.6 µM
- GI50 (CCRF-CEM leukemia): 6.07 µM
- TGI (CCRF-CEM leukemia): 37.7 µM
- GI50 (SF-295 CNS): 4.02 µM
- TGI (SF-295 CNS): 15.3 µM
- GI50 (HOP-92 NSCLC): 1.97 µM
- TGI (HOP-92 NSCLC): 15.6 µM
- GI50 (HCC-2998 colon): 2.29 µM
- TGI (HCC-2998 colon): 5.48 µM
- GI50 (PC-3 prostate): 5.29 µM
- TGI (PC-3 prostate): 25.4 µM
- GI50 (OVCAR-4 ovarian): 11.6 µM
- TGI (OVCAR-4 ovarian): 25 µM
- GI50 (RXF 393 renal): 2.77 µM
- TGI (RXF 393 renal): 14.6 µM
- GI50 (HCT-116 colon): 4.65 µM
- TGI (HCT-116 colon): 16.3 µM
- GI50 (SK-MEL-5 melanoma): 6.63 µM
- TGI (SK-MEL-5 melanoma): 19.3 µM
- GI50 (UACC-257 melanoma): 13.4 µM
- TGI (UACC-257 melanoma): 27.5 µM
- GI50 (SF-539 CNS): 5.15 µM
- TGI (SF-539 CNS): 18.2 µM
- GI50 (LOX IMVI melanoma): 1.9 µM
- TGI (LOX IMVI melanoma): 3.64 µM
- GI50 (A498 renal): 17.3 µM
- TGI (A498 renal): 31.7 µM
- GI50 (OVCAR-8 ovarian): 14.1 µM
- TGI (OVCAR-8 ovarian): 32 µM
- GI50 (NCI-H460 lung): 10.1 µM
- TGI (NCI-H460 lung): 24 µM
- GI50 (COLO 205 colon): 2.14 µM
- TGI (COLO 205 colon): 4.03 µM
- GI50 (UO-31 renal): 12.2 µM
- TGI (UO-31 renal): 24.7 µM
- GI50 (M14 melanoma): 10.6 µM
- TGI (M14 melanoma): 22.8 µM
- GI50 (HCT-15 colon): 2.08 µM
- TGI (HCT-15 colon): 4.82 µM
- GI50 (U251 CNS): 5.92 µM
- TGI (U251 CNS): 19.4 µM
- GI50 (CAKI-1 renal): 13.9 µM
- TGI (CAKI-1 renal): 27.5 µM
- GI50 (HL-60(TB) leukemia): 1.93 µM
- TGI (HL-60(TB) leukemia): 4.42 µM
- GI50 (MDA-MB-435): 8.9 µM
- TGI (MDA-MB-435): 21.1 µM
- GI50 (SW-620 colon): 4.82 µM
- TGI (SW-620 colon): 18.2 µM
- GI50 (NCI-H226 lung): 11.5 µM
- TGI (NCI-H226 lung): 25.3 µM
- GI50 (KM12 colon): 10.8 µM
- TGI (KM12 colon): 24.3 µM
- GI50 (MCF7 breast): 3.08 µM
- TGI (MCF7 breast): 10.7 µM
- GI50 (OVCAR-3 ovarian): 11.2 µM
- TGI (OVCAR-3 ovarian): 24 µM
- GI50 (NCI-H522 lung): 15.6 µM
- TGI (NCI-H522 lung): 31 µM
- GI50 (OVCAR-5 ovarian): 12.7 µM
- TGI (OVCAR-5 ovarian): 25.2 µM
